Laboratory results from PMC9606955, “In Vitro Activity of Essential Oils Distilled from Colombian Plants against Candida auris and Other Candida Species with Different Antifungal Susceptibility Profiles” (Molecules, 2022).
In brackets after ≈: the same amount, converted by molar mass. One block for each compound: values may come before it.

Tests used:
[1] = system: C. orthopsilosis MUM 17.13; assay: MIC, CLSI M27 broth microdilution; type: cell-based, Candida orthopsilosis; details: C. orthopsilosis MUM 17.13, antifungal drugs
Source text: (§1) The fungal strains used in this study were C. albicans ATCC 10231, C. albicans ATCC 64550, C. parapsilosis ATCC 22019, C. tropicalis ATCC 750, C. tropicalis ATCC 200956 (resistant to azoles and AMB), C. glabrata LMDM 34 (resistant to echinocandins), C. metapsilosis MUM 15.12, C. orthopsilosis MUM 17.13, C. lusitaniae MUM 17.08, C. krusei ATCC 6258 (Issatchenkia orientalis ATCC 6258), and C. auris CDC B11903. Additionally, nine clinical isolates were included: C. parapsilosis Synlab 406 (FLC-resistant) and eight C. auris isolates identified by MALDI-TOF MS (Bruker Daltonics, Bremen, Germany) according to Zhao et al.. These yeasts were cultured on Sabouraud Dextrose Agar (SDA; Sigma-Aldrich, St. Louis, MO, USA) for 24 h at 35 °C.
(§2) Antifungal susceptibility testing was performed according to Clinical and Laboratory Standards Institute M27, 4th Edition (CLSI standard M27, 4th Edition). Some modifications were applied for evaluation of the antifungal activity of EOs and terpenes. Initially, a screening was carried out to determine the antifungal activity of the EOs and of commercial terpenes. Stock concentrations of EOs and terpenes were prepared at 512 µg/mL and an inoculum of 2.5 × 10^3 CFU/mL of each yeast was prepared in RPMI 1640-MOPS (Sigma- Aldrich St. Louis, MO, USA). Thereafter, 100 µL of each stock solution of EOs or terpenes was dispensed in 96-well microdilution plates (Corning®, Costar®, NY, USA) and 100 µL of each yeast inoculum was added. […] Microdilution plates were incubated at 35 °C and, after 24 h, the presence or absence of growth was visually checked using a manual mirror viewer and then compared with the amount of growth in the control (no EO or terpene). Compounds able to inhibit yeast growth were tested to determine the minimal inhibitory concentration (MIC) as follows: 100 µL of 10 two-fold dilutions of the EOs or commercial terpenes was dispensed in 96-well microplates and the yeast inoculum was added. Final concentrations of the EOs or terpenes ranged from 0.5 µg/mL to 256 µg/mL. Microdilution plates were incubated at 35 °C for 24 h. MICs were visually determined at the lowest concentration that produced visual inhibition compared to the growth control. The assays were performed at least three times in duplicate on different days. The results were expressed as geometric means (GM) and ranges. As an antifungal susceptibility testing control, the activity of ITC and AMB against the reference strains C. krusei ATCC 6258 and C. parapsilosis ATCC 22019 was evaluated in all experiments following the CLSI standard M27, 4th Edition. It was mandatory that the MIC values remained in the accepted range.

C. albicans ATCC 64550 = assay: MIC, CLSI M27 broth microdilution; type: cell-based, Candida albicans; details: antifungal drugs
Source text: as §1, §2

C. albicans ATCC 10231 = assay: MIC, CLSI M27 broth microdilution; type: cell-based, Candida albicans; details: antifungal drugs
Source text: as §1, §2

C. glabrata LMDM 34 = assay: MIC, CLSI M27 broth microdilution; type: cell-based, Candida glabrata; details: antifungal drugs
Source text: as §1, §2

[2] = system: C. parapsilosis Synlab 406; assay: MIC, CLSI M27 broth microdilution; type: cell-based, Candida parapsilosis; details: C. parapsilosis Synlab 406, antifungal drugs
Source text: as §1, §2

[3] = system: C. parapsilosis ATCC 22019; assay: MIC, CLSI M27 broth microdilution; type: cell-based, Candida parapsilosis; details: antifungal drugs
Source text: as §1, §2

C. tropicalis ATCC 750 = assay: MIC, CLSI M27 broth microdilution; type: cell-based, Candida tropicalis; details: antifungal drugs
Source text: as §1, §2

[4] = system: C. tropicalis ATCC 200956; assay: MIC, CLSI M27 broth microdilution; type: cell-based, Candida tropicalis; details: C. tropicalis ATCC 200956, antifungal drugs
Source text: as §1, §2

C. krusei ATCC 6258 = assay: MIC, CLSI M27 broth microdilution; type: cell-based, Candida krusei; details: C. krusei ATCC 6258, antifungal drugs
Source text: as §1, §2

C. lusitaniae MUM 17.08 = assay: MIC, CLSI M27 broth microdilution; type: cell-based, Candida lusitaniae; details: C. lusitaniae MUM 17.08, antifungal drugs
Source text: as §1, §2

C. auris Ca 10 = assay: MIC, CLSI M27 broth microdilution; type: cell-based, Candida auris; details: antifungal drugs
Source text: as §1, §2

C. auris Ca 9 = assay: MIC, CLSI M27 broth microdilution; type: cell-based, Candida auris; details: C. auris Ca 9, antifungal drugs
Source text: as §1, §2

C. auris Ca 46 = assay: MIC, CLSI M27 broth microdilution; type: cell-based, Candida auris; details: C. auris Ca 46, antifungal drugs
Source text: as §1, §2

C. auris Ca 32 = assay: MIC, CLSI M27 broth microdilution; type: cell-based, Candida auris; details: C. auris Ca 32, antifungal drugs
Source text: as §1, §2

C. auris CDC B11903 = assay: MIC, CLSI M27 broth microdilution; type: cell-based, Candida auris; details: C. auris CDCB11903, antifungal drugs
Source text: as §1, §2

C. auris Ca 17 = assay: MIC, CLSI M27 broth microdilution; type: cell-based, Candida auris; details: C. auris Ca 17, antifungal drugs
Source text: as §1, §2

C. auris Ca 45 = assay: MIC, CLSI M27 broth microdilution; type: cell-based, Candida auris; details: C. auris Ca 45, antifungal drugs
Source text: as §1, §2

C. auris Ca 41 = assay: MIC, CLSI M27 broth microdilution; type: cell-based, Candida auris; details: C. auris Ca 41, antifungal drugs
Source text: as §1, §2

C. auris Ca 1 = assay: MIC, CLSI M27 broth microdilution; type: cell-based, Candida auris; details: C. auris Ca 1, antifungal drugs
Source text: as §1, §2

[5] = system: C. metapsilosis MUM 15.12; assay: MIC, CLSI M27 broth microdilution; type: cell-based, Candida metapsilosis; details: C. metapsilosis MUM 15.12, antifungal drugs
Source text: as §1, §2

C. auris = assay: Screening of antifungal activity at 256 µg/mL against C. auris; type: cell-based, Candida auris; details: screening at 256 µg/mL, clinical isolates of C. auris
Source text: as §1
Antifungal susceptibility testing was performed according to Clinical and Laboratory Standards Institute M27, 4th Edition (CLSI standard M27, 4th Edition). Some modifications were applied for evaluation of the antifungal activity of EOs and terpenes. Initially, a screening was carried out to determine the antifungal activity of the EOs and of commercial terpenes. Stock concentrations of EOs and terpenes were prepared at 512 µg/mL and an inoculum of 2.5 × 10^3 CFU/mL of each yeast was prepared in RPMI 1640-MOPS (Sigma- Aldrich St. Louis, MO, USA). Thereafter, 100 µL of each stock solution of EOs or terpenes was dispensed in 96-well microdilution plates (Corning®, Costar®, NY, USA) and 100 µL of each yeast inoculum was added. […] MICs were visually determined at the lowest concentration that produced visual inhibition compared to the growth control. […] The results were expressed as geometric means (GM) and ranges. As an antifungal susceptibility testing control, the activity of ITC and AMB against the reference strains C. krusei ATCC 6258 and C. parapsilosis ATCC 22019 was evaluated in all experiments following the CLSI standard M27, 4th Edition. […]

MIC Range [1]: 0.12 µg/mL (≈ 0.17 µM)
MIC ([1]; Lodderomyces orthopsilosis, MUM17.13, geometric mean, read-out: MIC GM): 0.12 µg/mL (≈ 0.17 µM)
MIC (C. albicans ATCC 64550; Candida albicans, ATCC64550, geometric mean): 0.7 µg/mL (≈ 0.992 µM)
MIC Range (C. albicans ATCC 64550): 0.5 to 1 µg/mL
MIC (C. albicans ATCC 10231; Candida albicans, ATCC10231, geometric mean): 0.06 µg/mL (≈ 0.085 µM)
MIC Range (C. albicans ATCC 10231): 0.03 to 0.125 µg/mL
MIC (C. glabrata LMDM 34; Nakaseomyces glabratus, LMDM34, geometric mean): 1 µg/mL (≈ 1.42 µM)
MIC Range (C. glabrata LMDM 34): 1 µg/mL (≈ 1.42 µM)
MIC Range [2]: 0.5 to 1 µg/mL
MIC ([2]; Lodderomyces parapsilosis, SYNLAB406, geometric mean, read-out: MIC GM): 0.7 µg/mL (≈ 0.992 µM)
MIC ([3]; Lodderomyces parapsilosis, ATCC22019, geometric mean): 0.35 µg/mL (≈ 0.496 µM)
MIC Range [3]: 0.25 to 0.50 µg/mL
MIC (C. tropicalis ATCC 750; Candida tropicalis, ATCC750, geometric mean): 0.12 µg/mL (≈ 0.17 µM)
MIC Range (C. tropicalis ATCC 750): 0.06 to 0.25 µg/mL
MIC Range [4]: >16 µg/mL
MIC ([4]; Candida tropicalis, ATCC200956, geometric mean, read-out: MIC GM): > 16 µg/mL
MIC Range (C. krusei ATCC 6258): 0.12 to 0.50 µg/mL
MIC (C. krusei ATCC 6258; Pichia kudriavzevii, ATCC6258, geometric mean, read-out: MIC GM): 0.28 µg/mL (≈ 0.397 µM)
MIC Range (C. lusitaniae MUM 17.08): 0.03 to 0.06 µg/mL
MIC (C. lusitaniae MUM 17.08; Clavispora lusitaniae, MUM17.08, geometric mean, read-out: MIC GM): 0.04 µg/mL (≈ 0.0567 µM)
MIC (C. auris Ca 10; Candidozyma auris, CA10, geometric mean): 0.09 µg/mL (≈ 0.128 µM)
MIC Range (C. auris Ca 10): 0.06 to 0.12 µg/mL
MIC Range (C. auris Ca 9): 0.03 to 0.12 µg/mL
MIC (C. auris Ca 9; Candidozyma auris, CA9, geometric mean, read-out: MIC GM): 0.06 µg/mL (≈ 0.085 µM)
MIC Range (C. auris Ca 46): 0.06 to 0.12 µg/mL
MIC (C. auris Ca 46; Candidozyma auris, CA46, geometric mean, read-out: MIC GM): 0.04 µg/mL (≈ 0.0567 µM)
MIC Range (C. auris Ca 32): 0.25 to 0.50 µg/mL
MIC (C. auris Ca 32; Candidozyma auris, CA32, geometric mean, read-out: MIC GM): 0.35 µg/mL (≈ 0.496 µM)
MIC Range (C. auris CDC B11903): 0.06 to 0.12 µg/mL
MIC (C. auris CDC B11903; Candidozyma auris, geometric mean, read-out: MIC GM): 0.04 µg/mL (≈ 0.0567 µM)
MIC Range (C. auris Ca 17): 0.12 to 0.5 µg/mL
MIC (C. auris Ca 17; Candidozyma auris, CA17, geometric mean, read-out: MIC GM): 0.25 µg/mL (≈ 0.354 µM)
MIC Range (C. auris Ca 45): 0.06 to 0.12 µg/mL
MIC (C. auris Ca 45; Candidozyma auris, CA45, geometric mean, read-out: MIC GM): 0.04 µg/mL (≈ 0.0567 µM)
MIC Range (C. auris Ca 41): 0.03 to 0.12 µg/mL
MIC (C. auris Ca 41; Candidozyma auris, CA41, geometric mean, read-out: MIC GM): 0.06 µg/mL (≈ 0.085 µM)
MIC Range (C. auris Ca 1): 0.03 to 0.12 µg/mL
MIC (C. auris Ca 1; Candidozyma auris, CA1, geometric mean, read-out: MIC GM): 0.06 µg/mL (≈ 0.085 µM)
MIC Range [5]: 0.06 to 0.12 µg/mL
MIC ([5]; Lodderomyces metapsilosis, MUM15.12, geometric mean, read-out: MIC GM): 0.09 µg/mL (≈ 0.128 µM)
SMILES: CCC(C)n1ncn(-c2ccc(N3CCN(c4ccc(OCC5COC(Cn6cncn6)(c6ccc(Cl)cc6Cl)O5)cc4)CC3)cc2)c1=O (centres unmarked) [ITC, itraconazole]

SMILES: C=C(C)C1CC=C(C)C(O)C1 (mixture of isomers) [carveol]
antifungal activity in screening against C. auris (C. auris): active against only some of the clinical isolates of C. auris
